Measurements: PubChem BioAssay (NCI)
Values joined by “and” are separate entries in the source; they are usually repeats but may differ in a detail not shown here. Equal entries are not always repeated.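 Values below derive from 48-hour exposures of cells grown in 96-well plates, with endpoints linearly interpolated between the two concentrations bracketing the appropriate inhibition level. GI50 = concentration required for 50% inhibition of growth. TGI: total growth inhibition.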

Columns and labels:
Experiment in all cases: NCI tumour cell line growth inhibition, 48 h
[1] = tested on: MCF7 breast
[2] = tested on: RPMI-8226 leukemia
[3] = tested on: T-47D breast
[4] = tested on: A498 renal
[5] = tested on: SF-295 CNS
[6] = tested on: PC-3 prostate
[7] = tested on: SR leukemia
[8] = tested on: SK-MEL-28 melanoma
[9] = tested on: DMS 114 small cell lung
[10] = tested on: KM20L2 colon

Row | Compound | TGI [1] | TGI [2] [µM] | TGI [3] [µM] | TGI [4] | TGI [5] | TGI [6] | TGI [7] | TGI [8] | TGI [9] [µM] | TGI [10] [µM] | GI50 [1] [µM] | GI50 [2] [µM] | GI50 [3] [µM] | GI50 [4] [µM] | GI50 [5] [µM] | GI50 [6] [µM] | GI50 [7] [µM] | GI50 [8] [µM]
1 | COc1ccc(CSC2=C(C#N)C(=O)NC3(CCCCC3)S2)cc1 | > 100 µM | > 100 | 63.2 | > 100 µM | > 100 µM | > 100 µM | > 100 µM | > 100 µM | – | – | – | – | – | – | – | – | – | –
2 | O=c1cc[nH]cc1-c1c[nH]ccc1=O | – | > 100 | – | > 100 µM | > 100 µM | – | – | > 100 µM | > 100 | – | – | – | – | – | – | – | – | –
3 | Cc1ccc(N2C(=O)/C(=C/c3ccc(N(CCC#N)CCC#N)cc3)N=C2COc2ccc(Cl)cc2Cl)cc1 | – | > 100 | – | – | > 100 µM | – | > 100 µM | > 100 µM | > 100 | > 100 | – | – | – | – | – | – | – | –
4 | CN1CCN(C(=O)c2ccc(NC(=O)Nc3ccc(-c4nc(N5CCOCC5)c5cccn5n4)cc3)cc2)CC1 | 2.73 µM | 2.02 | 0.0567 | 0.0664 µM | 0.239 µM | 19.3 µM | 8.7 µM | 0.77 µM | – | – | < 0.012 | 0.287 | 0.0126 | 0.0172 | 0.0322 | 0.0488 | 0.0465 | 0.0465
5 | O=C1NC(=O)C(c2cccc(Cl)c2)=C1Nc1ccc(Cl)c(C(=O)O)c1 | > 25 µM | > 25 | > 25 | > 25 µM | > 25 µM | > 25 µM | > 25 µM | > 25 µM | – | – | > 25 | > 25 | > 25 | > 25 | > 25 | > 25 | > 25 | > 25
6 | COC(=O)CC1(O)C=CC(=O)C=C1 | 15.2 µM | 31.4 | 25.7 | 15.9 µM | 17.7 µM | 6.35 µM | > 100 µM | 7.47 µM | – | – | – | – | – | – | – | – | – | –
7 | C=C(C(=O)OC)[C@@H]1CC2OC1C(=O)C(C)CCC/C(C)=C/CC[C@@]2(C)O (stereo partly specified) | > 100 µM | 61.2 | > 100 | 96.8 µM | > 100 µM | > 100 µM | 25.1 µM | 77.3 µM | – | – | 43.5 | 16.8 | 59.8 | 37.2 | 39.5 | 36.8 | 5.1 | 25.5
8 | CN1CCN(CCCOc2ccc3nc(Nc4ccc(F)c(F)c4)ccc3c2)CC1 | 3.53 µM | 6.3 | 8.79 | 4.03 µM | 3.65 µM | 3.72 µM | 6.95 µM | 3.2 µM | – | – | 1.66 | 1.7 | 1.88 | 1.26 | 1.61 | 1.72 | 1.71 | 1.56
9 | Nc1c(C(=O)c2cccc(C(O)CO)c2)cnn1-c1ccc(F)cc1 (stereo unspecified) | > 25 µM | > 25 | > 25 | > 25 µM | > 25 µM | > 25 µM | > 25 µM | > 25 µM | – | – | > 25 | > 25 | > 25 | > 25 | > 25 | > 25 | > 25 | > 25
10 | CCOC(=O)c1sc2c(C(=O)OCC)n3cc(C)cc(C)c3c2c1O | – | – | – | – | > 100 µM | – | > 100 µM | > 100 µM | > 100 | > 100 | – | – | – | – | – | – | – | –
11 | O=S(=O)(/N=S(/Nc1ccccc1)C(F)(F)Cl)c1ccccc1 (stereo unspecified) | > 100 µM | > 100 | > 100 | > 100 µM | > 100 µM | > 100 µM | > 100 µM | > 100 µM | – | – | – | – | – | – | – | – | – | –
12 | CCC[CH2][Sn]([CH2]CCC)([CH2]CCC)/[C](=C/[Si](C)(C)c1ccccc1)c1ccc2c(c1)OCO2 | 53.7 µM | 77.8 | 62 | 70.6 µM | 49.6 µM | > 100 µM | 63.9 µM | 33.4 µM | – | – | 20.7 | 20.7 | 24.6 | 30.5 | 26.8 | 31.4 | 8.61 | 16.2
13 | COc1cc(/C=C/C(=O)CC(=O)/C=C/c2cc(OC)c(O)c(OC)c2)cc(OC)c1O | 25 µM and > 100 µM | 30.8 | 21.5 | 12.2 µM and 37.5 µM | 25 µM and > 100 µM | 25 µM and 37.8 µM | 25 µM and > 100 µM | 21.5 µM and 57.8 µM | – | – | 19.6 | – | – | 15.6 | 32.3 | – | 7.56 | 14.1
14 | COc1cc(C)cc(C(=O)/C=C/c2ccccc2)c1O | 49 µM | 63.3 | 44.6 | 33.3 µM | 39.4 µM | 49.8 µM | 77.6 µM | 50.7 µM | – | – | – | – | – | – | – | – | – | –
15 | CC(C)N(C(=O)C12C3C4C5(C(=O)O)C(C1C35I)C42C(=O)O)C(C)C (stereo unspecified) | – | – | – | > 100 µM | > 100 µM | – | > 100 µM | > 100 µM | > 100 | > 100 | – | – | – | – | – | – | – | –
16 | Nc1nc(Cl)nc2c1ncn2C1OC(CO)C(O)C1F (stereo unspecified) | > 100 µM | > 100 | > 100 | 2.55 µM | 13.5 µM | > 100 µM | 5.26 µM | > 100 µM | – | – | 0.163 | 29.8 | 10.1 | 0.284 | 1.68 | 99.7 | 1.67 | > 9.44
17 | CCCC(O)c1cn(-c2cccc(S(=O)(=O)O)c2)nn1 (stereo unspecified) | – | > 100 | – | > 100 µM | > 100 µM | – | – | > 100 µM | > 100 | > 100 | – | – | – | – | – | – | – | –
18 | COc1ccc(-c2cc3ccccc3[nH]c2=O)cc1OC | – | > 100 | – | – | > 100 µM | – | > 100 µM | > 100 µM | – | > 100 | – | – | – | – | – | – | – | –
19 | COc1ccc(Nc2ncnc3ccc(-c4cncc(NS(C)(=O)=O)c4)cc23)cc1Cl | 8.01 µM | 4.9 | 1.61 | 4.44 µM | 10.1 µM | 16.6 µM | 5.86 µM | 18.4 µM | – | – | 1.63 | 2.11 | 0.177 | 1.8 | 2.51 | 2.83 | 1.42 | 2.75
